Source: patent publication US10065963B2 (Incyte Corporation, priority 2015, dated 2018)
Structures can show the parent of a compound that is named as a salt. Blank lines part the entries; values can stand above or below the compound they belong to.

Legend:
[1] = test system: Phosphorylated Ribosomal Protein S6 (RPS6) in THP-1 cells; experiment: THP-1 RPS6 ELISA assay; assay type: cell-based, human; details: Homo sapiens, THP-1, THP-1 cells, 10 nM MCP-1; read-out: PI3Kγ_THP1_RPS6_ELISA IC50
[2] = target: PI3Kδ (p110δ/p85α) Recombinant Human Protein (Homo sapiens (Human), UniProt O00329); experiment: PI3Kδ scintillation proximity assay; assay type: biochemical; details: 2 μM ATP, 20 μM PIP2
[3] = target: PI3Kγ (p110γ) Recombinant Human Protein (Homo sapiens (Human), UniProt P48736); experiment: PI3K-γ scintillation proximity assay; assay type: biochemical; details: 2 μM ATP, 20 μM PIP2
PI3Kγ (p110γ) Recombinant Human Protein, sequence (P48736 whole entry): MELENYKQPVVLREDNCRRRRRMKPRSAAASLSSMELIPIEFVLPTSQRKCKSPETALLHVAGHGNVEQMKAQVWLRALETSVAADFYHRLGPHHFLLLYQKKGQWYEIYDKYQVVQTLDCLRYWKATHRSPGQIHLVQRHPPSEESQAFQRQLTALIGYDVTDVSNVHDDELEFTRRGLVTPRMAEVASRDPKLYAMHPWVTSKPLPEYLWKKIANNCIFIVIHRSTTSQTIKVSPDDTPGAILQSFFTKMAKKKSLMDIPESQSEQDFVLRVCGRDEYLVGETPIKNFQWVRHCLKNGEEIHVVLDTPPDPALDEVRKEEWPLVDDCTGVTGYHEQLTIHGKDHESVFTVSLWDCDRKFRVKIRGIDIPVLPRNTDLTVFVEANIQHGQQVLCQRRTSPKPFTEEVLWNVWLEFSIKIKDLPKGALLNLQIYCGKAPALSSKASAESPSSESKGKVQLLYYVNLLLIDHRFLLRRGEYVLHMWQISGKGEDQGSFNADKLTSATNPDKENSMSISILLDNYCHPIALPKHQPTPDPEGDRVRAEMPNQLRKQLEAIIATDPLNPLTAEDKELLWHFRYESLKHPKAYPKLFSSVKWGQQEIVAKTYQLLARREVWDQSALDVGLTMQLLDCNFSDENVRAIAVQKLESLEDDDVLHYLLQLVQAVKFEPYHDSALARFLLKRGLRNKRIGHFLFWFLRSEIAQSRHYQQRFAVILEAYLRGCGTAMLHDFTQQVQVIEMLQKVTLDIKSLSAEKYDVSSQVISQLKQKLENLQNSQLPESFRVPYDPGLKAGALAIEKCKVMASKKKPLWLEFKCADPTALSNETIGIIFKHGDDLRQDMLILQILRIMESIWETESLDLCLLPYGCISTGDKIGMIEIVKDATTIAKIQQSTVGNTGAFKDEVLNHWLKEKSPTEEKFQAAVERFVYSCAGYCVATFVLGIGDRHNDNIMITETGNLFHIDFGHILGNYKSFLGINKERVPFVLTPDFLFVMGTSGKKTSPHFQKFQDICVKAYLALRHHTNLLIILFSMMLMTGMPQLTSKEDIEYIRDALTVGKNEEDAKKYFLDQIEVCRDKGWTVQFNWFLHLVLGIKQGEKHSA

PI3Kδ (p110δ/p85α) Recombinant Human Protein, sequence (O00329 whole entry): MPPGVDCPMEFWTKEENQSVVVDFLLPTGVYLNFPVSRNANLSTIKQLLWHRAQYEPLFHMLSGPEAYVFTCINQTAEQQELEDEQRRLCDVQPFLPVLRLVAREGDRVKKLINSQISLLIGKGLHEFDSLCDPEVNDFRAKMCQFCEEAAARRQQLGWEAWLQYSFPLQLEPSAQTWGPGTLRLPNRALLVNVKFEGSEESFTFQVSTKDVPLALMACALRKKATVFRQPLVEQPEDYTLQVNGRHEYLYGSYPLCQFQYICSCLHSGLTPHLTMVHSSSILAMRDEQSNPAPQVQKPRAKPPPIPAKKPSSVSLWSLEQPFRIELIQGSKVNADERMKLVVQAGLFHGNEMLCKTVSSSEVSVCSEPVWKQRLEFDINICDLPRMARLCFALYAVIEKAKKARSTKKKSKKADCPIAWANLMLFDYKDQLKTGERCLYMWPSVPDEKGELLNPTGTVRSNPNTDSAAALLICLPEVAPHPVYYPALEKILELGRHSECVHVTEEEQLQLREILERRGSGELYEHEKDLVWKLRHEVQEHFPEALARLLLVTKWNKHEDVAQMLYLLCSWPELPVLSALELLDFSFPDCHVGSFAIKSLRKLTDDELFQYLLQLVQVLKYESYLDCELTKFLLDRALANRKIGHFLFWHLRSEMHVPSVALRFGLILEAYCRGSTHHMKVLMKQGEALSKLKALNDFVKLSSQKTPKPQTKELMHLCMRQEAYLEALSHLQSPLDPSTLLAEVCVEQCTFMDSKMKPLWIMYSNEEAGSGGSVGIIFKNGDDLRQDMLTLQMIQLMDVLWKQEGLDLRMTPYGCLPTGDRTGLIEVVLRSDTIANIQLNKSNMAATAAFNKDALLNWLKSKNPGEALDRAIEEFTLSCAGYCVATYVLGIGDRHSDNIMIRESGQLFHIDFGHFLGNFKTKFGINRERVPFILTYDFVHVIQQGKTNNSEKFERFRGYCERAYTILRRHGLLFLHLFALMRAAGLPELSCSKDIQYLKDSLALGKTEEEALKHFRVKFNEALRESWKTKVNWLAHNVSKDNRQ
PI3Kδ (p110δ/p85α) Recombinant Human Protein, sequence (P27986 whole entry partner): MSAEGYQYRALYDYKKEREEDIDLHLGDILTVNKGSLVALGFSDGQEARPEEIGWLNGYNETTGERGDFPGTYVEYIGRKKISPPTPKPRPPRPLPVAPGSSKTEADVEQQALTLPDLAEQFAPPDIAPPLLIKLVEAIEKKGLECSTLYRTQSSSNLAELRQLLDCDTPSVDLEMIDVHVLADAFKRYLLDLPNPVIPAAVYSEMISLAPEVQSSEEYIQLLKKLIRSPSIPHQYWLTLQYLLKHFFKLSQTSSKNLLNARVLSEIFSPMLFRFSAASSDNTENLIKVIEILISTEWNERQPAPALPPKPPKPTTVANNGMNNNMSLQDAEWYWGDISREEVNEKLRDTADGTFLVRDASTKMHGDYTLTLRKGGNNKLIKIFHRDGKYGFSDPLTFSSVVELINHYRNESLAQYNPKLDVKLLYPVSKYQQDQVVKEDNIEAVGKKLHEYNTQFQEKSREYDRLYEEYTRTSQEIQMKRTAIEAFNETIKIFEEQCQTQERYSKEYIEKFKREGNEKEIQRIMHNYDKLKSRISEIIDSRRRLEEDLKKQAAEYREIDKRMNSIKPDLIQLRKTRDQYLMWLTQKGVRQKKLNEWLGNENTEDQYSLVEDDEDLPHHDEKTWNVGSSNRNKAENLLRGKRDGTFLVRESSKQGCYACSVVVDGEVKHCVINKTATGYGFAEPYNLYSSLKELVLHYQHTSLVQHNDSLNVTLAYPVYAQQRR

SMILES: CCOc1c(C(C)NC(=O)c2c(N)nn3cccnc23)cc(Cl)c2cnn(C)c12 (centres unmarked)
IC50 [1]: < 500 nM

SMILES: CC(NC(=O)c1c(N)nn2cccnc12)c1cc(Cl)c2cncn2c1N1CCC(C#N)C1 (racemic) [Example 32, 2-Amino-N-(1-(8-chloro-5-(3-cyanopyrrolidin-1-yl)imidazo[1,5-a]pyridin-6-yl)ethyl)pyrazolo[1,5-a]pyrimidine-3-carboxamide trifluoroacetate salt]
IC50 [2]: < 100 nM | IC50 [1]: < 500 nM | IC50 [3]: < 100 nM

SMILES: CC(NC(=O)c1c(N)nn2cccnc12)c1cc(Cl)c2cncn2c1N1C[C@H](O)[C@@H](F)C1 (mixture of isomers) [Example 35, 2-Amino-N-(1-(8-chloro-5-((3S,4S)-3-fluoro-4-hydroxypyrrolidin-1-yl)imidazo[1,5-a]pyridin-6-yl)ethyl)pyrazolo[1,5-a]pyrimidine-3-carboxamide trifluoroacetate salt]
IC50 [2]: < 100 nM | IC50 [1]: < 500 nM | IC50 [3]: < 100 nM

SMILES: CC(NC(=O)c1c(N)nn2cccnc12)c1cc(Cl)c2cn[nH]c2c1N1CCC(O)C1 (racemic) [Example 90A, 2-Amino-N-{1-[4-chloro-7-(3-hydroxypyrrolidin-1-yl)-2H-indazol-6-yl]ethyl}pyrazolo[1,5-a]pyrimidine-3-carboxamide bis(trifluoroacetate)]
IC50 [2]: < 500 nM | IC50 [1]: < 500 nM | IC50 [3]: < 100 nM

SMILES: Cc1ncc2c(Cl)cc(C(C)NC(=O)c3c(N)nn4cccnc34)c(-c3cn[nH]c3)n12 (racemic) [Example 118, 2-Amino-N-{1-[8-chloro-3-methyl-5-(1H-pyrazol-4-yl)imidazo[1,5-a]pyridin-6-yl]ethyl}pyrazolo[1,5-a]pyrimidine-3-carboxamide trifluoroacetate salt]
IC50 [2]: < 100 nM | IC50 [1]: < 500 nM | IC50 [3]: < 100 nM

SMILES: Cc1ncc2c(Cl)cc(C(C)NC(=O)c3c(N)nn4cccnc34)c(-c3cnn(C)c3)n12 (racemic) [Example 119, 2-Amino-N-{1-[8-chloro-3-methyl-5-(1-methyl-1H-pyrazol-4-yl)imidazo[1,5-a]pyridin-6-yl]ethyl}pyrazolo[1,5-a]pyrimidine-3-carboxamide trifluoroacetate salt]
IC50 [2]: < 500 nM | IC50 [1]: < 500 nM | IC50 [3]: < 100 nM

SMILES: Cc1ncc2c(Cl)cc(C(C)NC(=O)c3c(N)nn4cccnc34)c(-c3cccnc3)n12 (racemic) [Example 120, 2-Amino-N-[1-(8-chloro-3-methyl-5-pyridin-3-ylimidazo[1,5-a]pyridin-6-yl)ethyl]pyrazolo[1,5-a]pyrimidine-3-carboxamide trifluoroacetate salt]
IC50 [2]: < 100 nM | IC50 [1]: < 500 nM | IC50 [3]: < 100 nM

SMILES: Cc1ncc2c(Cl)cc(C(C)NC(=O)c3c(N)nn4cccnc34)c(-c3ccccc3)n12 (racemic) [Example 121, 2-Amino-N-[1-(8-chloro-3-methyl-5-phenylimidazo[1,5-a]pyridin-6-yl)ethyl]pyrazolo[1,5-a]pyrimidine-3-carboxamide trifluoroacetate salt]
IC50 [2]: < 500 nM | IC50 [1]: < 500 nM | IC50 [3]: < 100 nM

SMILES: CC(NC(=O)c1c(N)nn2cccnc12)c1cc(Cl)c2cn[nH]c2c1-c1ccccc1 (centres unmarked) [Example 14]
IC50 [1]: < 1000 nM

SMILES: CC(NC(=O)c1c(N)nn2cccnc12)c1cc(Cl)c2c(Br)n[nH]c2c1-c1ccccc1 (centres unmarked) [Example 23]
IC50 [1]: < 1000 nM

SMILES: Cc1ncc2c(Cl)cc(C(C)NC(=O)c3c(N)nn4cccnc34)c(-c3cccc(F)c3)n12 (centres unmarked) [Example 26]
IC50 [1]: < 500 nM

SMILES: CC(NC(=O)c1c(N)nn2cccnc12)c1cc(Cl)c2cn[nH]c2c1N1CCC(C(=O)N(C)C)CC1 (centres unmarked) [Example 108, 2-Amino-N-[1-(4-chloro-7-{4-[(dimethylamino)carbonyl]piperidin-1-yl}-2H-indazol-6-yl)ethyl]pyrazolo[1,5-a]pyrimidine-3-carboxamide trifluoroacetate]
IC50 [2]: < 500 nM | IC50 [3]: < 100 nM

The next lines start with the values.

IC50 [2]: < 100 nM | IC50 [1]: < 500 nM | IC50 [3]: < 100 nM
SMILES: Cc1nc(Cl)c2c(Cl)cc(C(C)NC(=O)c3c(N)nn4cccnc34)c(-c3cn[nH]c3)n12 (racemic) [Example 122, 2-Amino-N-{1-[1,8-dichloro-3-methyl-5-(1H-pyrazol-4-yl)imidazo[1,5-a]pyridin-6-yl]ethyl}pyrazolo[1,5-a]pyrimidine-3-carboxamide trifluoroacetate salt]

IC50 [2]: < 100 nM | IC50 [1]: < 500 nM | IC50 [3]: < 100 nM
SMILES: Cc1nc(F)c2c(Cl)cc(C(C)NC(=O)c3c(N)nn4cccnc34)c(-c3cn[nH]c3)n12 (racemic) [Example 123, 2-Amino-N-{1-[8-chloro-1-fluoro-3-methyl-5-(1H-pyrazol-4-yl)imidazo[1,5-a]pyridin-6-yl]ethyl}pyrazolo[1,5-a]pyrimidine-3-carboxamide trifluoroacetate salt]

IC50 [2]: ≥ 2000 nM | IC50 [1]: > 1000 nM | IC50 [3]: < 500 nM
SMILES: Cc1nc(C(F)(F)F)c2c(Cl)cc(C(C)NC(=O)c3c(N)nn4cccnc34)c(-c3ccccc3)n12 (racemic) [Example 124, 2-Amino-N-{1-[8-chloro-3-methyl-5-phenyl-1-(trifluoromethyl)imidazo[1,5-a]pyridin-6-yl]ethyl}pyrazolo[1,5-a]pyrimidine-3-carboxamide trifluoroacetate salt]

IC50 [2]: < 500 nM | IC50 [1]: < 500 nM | IC50 [3]: < 100 nM
SMILES: Cc1nc(C#N)c2c(Cl)cc(C(C)NC(=O)c3c(N)nn4cccnc34)c(-c3ccccc3)n12 (racemic) [Example 125, 2-Amino-N-[1-(8-chloro-1-cyano-3-methyl-5-phenylimidazo[1,5-a]pyridin-6-yl)ethyl]pyrazolo[1,5-a]pyrimidine-3-carboxamide trifluoroacetate salt]

IC50 [2]: < 2000 nM | IC50 [1]: < 500 nM | IC50 [3]: < 100 nM
SMILES: C#Cc1nc(C)n2c(-c3ccccc3)c(C(C)NC(=O)c3c(N)nn4cccnc34)cc(Cl)c12 (racemic) [Example 126, 2-Amino-N-[1-(8-chloro-1-ethynyl-3-methyl-5-phenylimidazo[1,5-a]pyridin-6-yl)ethyl]pyrazolo[1,5-a]pyrimidine-3-carboxamide]

IC50 [2]: < 100 nM | IC50 [1]: < 500 nM | IC50 [3]: < 100 nM
SMILES: CC(NC(=O)c1c(N)nn2cccnc12)c1cc(Cl)c2cncn2c1-c1cccnc1 (racemic) [Example 127, 2-Amino-N-[1-(8-chloro-5-pyridin-3-ylimidazo[1,5-a]pyridin-6-yl)ethyl]pyrazolo[1,5-a]pyrimidine-3-carboxamide trifluoroacetate salt]

IC50 [2]: < 2000 nM | IC50 [1]: > 1000 nM | IC50 [3]: < 100 nM
SMILES: CC(NC(=O)c1c(N)nn2cccnc12)c1cc(Cl)c2c(C#N)ncn2c1-c1cccnc1 (racemic) [Example 128, 2-Amino-N-[1-(8-chloro-1-cyano-5-pyridin-3-ylimidazo[1,5-a]pyridin-6-yl)ethyl]pyrazolo[1,5-a]pyrimidine-3-carboxamide trifluoroacetate salt]

IC50 [2]: < 2000 nM | IC50 [1]: < 1000 nM | IC50 [3]: < 100 nM
SMILES: Cc1ncn2c(-c3cccnc3)c(C(C)NC(=O)c3c(N)nn4cccnc34)cc(Cl)c12 (racemic) [Example 129, 2-Amino-N-[1-(8-chloro-1-methyl-5-pyridin-3-ylimidazo[1,5-a]pyridin-6-yl)ethyl]pyrazolo[1,5-a]pyrimidine-3-carboxamide trifluoroacetate salt]

IC50 [2]: < 500 nM | IC50 [1]: < 500 nM | IC50 [3]: < 100 nM
SMILES: CC(NC(=O)c1c(N)nn2cccnc12)c1cc(Cl)c2cncn2c1-c1cc[nH]n1 (racemic) [Example 130, 2-Amino-N-{1-[8-chloro-5-(1H-pyrazol-3-yl)imidazo[1,5-a]pyridin-6-yl]ethyl}pyrazolo[1,5-a]pyrimidine-3-carboxamide trifluoroacetate salt]

IC50 [2]: < 100 nM | IC50 [1]: < 500 nM | IC50 [3]: < 100 nM
SMILES: CC(NC(=O)c1c(N)nn2cccnc12)c1cc(Cl)c2cncn2c1-c1cncc(S(C)(=O)=O)c1 (racemic) [Example 131, 2-Amino-N-(1-{8-chloro-5-[5-(methylsulfonyl)pyridin-3-yl]imidazo[1,5-a]pyridin-6-yl}ethyl)pyrazolo[1,5-a]pyrimidine-3-carboxamide trifluoroacetate salt]

IC50 [2]: < 500 nM | IC50 [1]: < 500 nM | IC50 [3]: < 100 nM
SMILES: CC(NC(=O)c1c(N)nn2cccnc12)c1cc(Cl)c2cncn2c1-c1ccccn1 (racemic) [Example 133, 2-Amino-N-[1-(8-chloro-5-pyridin-2-ylimidazo[1,5-a]pyridin-6-yl)ethyl]pyrazolo[1,5-a]pyrimidine-3-carboxamide trifluoroacetate salt]

IC50 [2]: < 500 nM | IC50 [1]: > 1000 nM | IC50 [3]: < 100 nM
SMILES: CNS(=O)(=O)c1ccc(-c2c(C(C)NC(=O)c3c(N)nn4cccnc34)cc(Cl)c3cncn23)cc1 (racemic) [Example 135, 2-Amino-N-[1-(8-chloro-5-{4-[(methylamino)sulfonyl]phenyl}imidazo[1,5-a]pyridin-6-yl)ethyl]pyrazolo[1,5-a]pyrimidine-3-carboxamide trifluoroacetate salt]

IC50 [2]: < 100 nM | IC50 [3]: < 100 nM
SMILES: C[C@H](NC(=O)c1c(N)nn2cccnc12)c1cc(Cl)c2c(Cl)ncn2c1N1CCNS(=O)(=O)CC1 [Example 160, 2-Amino-N-{(1S)-1-[1,8-dichloro-5-(1,1-dioxido-1,2,5-thiadiazepan-5-yl)imidazo[1,5-a]pyridin-6-yl]ethyl}pyrazolo[1,5-a]pyrimidine-3-carboxamide trifluoroacetate salt]

IC50 [2]: < 100 nM | IC50 [3]: < 100 nM
SMILES: C[C@H](NC(=O)c1c(N)nn2cccnc12)c1cc(Cl)c2c(Cl)ncn2c1N1CCNC(=O)CC1 [Example 161, 2-Amino-N-{(1S)-1-[1,8-dichloro-5-(5-oxo-1,4-diazepan-1-yl)imidazo[1,5-a]pyridin-6-yl]ethyl} pyrazolo[1,5-a] pyrimidine-3-carboxamide trifluoroacetate salt]

IC50 [1]: < 500 nM
SMILES: CCCC(NC(=O)c1c(N)nn2cccnc12)c1cc(Cl)c2cncn2c1N1CCS(=O)(=O)CC1 (centres unmarked) [Example 178, trifluoroacetate salt]
